Test results taken from ChEMBL document CHEMBL1145073, “DNA binding ligands targeting drug-resistant bacteria: structure, activity, and pharmacology” (J Med Chem, 2003).
Converted amounts (≈) assume the structure as drawn.

Columns and labels:
Enterococcus faecalis [1] = assay: In vitro antimicrobial activity against vancomycin-susceptible Enterococcus faecalis 29212; assay type: functional
Staphylococcus aureus = assay: In vitro antimicrobial activity against methicillin resistant Staphylococcus aureus 27660; assay type: functional
[2] = In vitro antimicrobial activity against penicillin-intermediate Streptococcus pneumoniae 49619; assay type: functional
Candida albicans = assay: In vitro antimicrobial activity against Candida albicans 38247; assay type: functional; settings: Candida albicans; read-out: MIC
Enterococcus faecalis [3] = assay: In vitro antimicrobial activity against vancomycin-resistant Enterococcus faecalis 51559; assay type: functional
Nucleic Acid = assay: Apparent binding affinity against DNA (5'-ACAATTAA-3') was determined using DNase I footprinting titration method; assay type: nucleic-acid assay; settings: read-out: Kd app
[4] = In vitro antimicrobial activity against penicillin resistant Streptococcus pneumoniae 51422; assay type: functional
Bacillus cereus = assay: In vitro antimicrobial activity against Bacillus cereus 11778; assay type: functional

Compound	MIC (Enterococcus faecalis [1]) [µg/mL]	MIC (Staphylococcus aureus) [µg/mL]	MIC [2] [µg/mL]	MIC (Candida albicans) [µg/mL]	MIC (Enterococcus faecalis [3]) [µg/mL]	Kd (Nucleic Acid) [nM]	MIC [4] [µg/mL]	MIC (Bacillus cereus) [µg/mL]
Cc1cccnc1-c1cc(C(=O)Nc2cc(C(=O)Nc3cc(C(=O)NCCN4CCOCC4)n(C)c3)n(C)c2)n(C)c1	8 (≈ 14 µM)	18 (≈ 31.4 µM)	1 (≈ 1.75 µM)	–	–	–	–	–
Cn1cc(NC(=O)c2cc(NC(=O)c3cc(-c4ccncc4)cn3C)cn2C)cc1C(=O)NCCN1CCOCC1	32 (≈ 57.3 µM)	> 32	2 (≈ 3.58 µM)	–	–	–	–	–
Cn1cc(NC(=O)c2cc(NC(=O)c3cc(NC(=O)c4cc5ccccc5cn4)cn3C)cn2C)cc1C(=O)NCCN1CCCC1	2 (≈ 3.15 µM)	0.5 (≈ 0.786 µM)	0.062 (≈ 0.0975 µM)	–	–	–	–	–
Cn1cc(NC(=O)c2cc(NC(=O)c3cc(NC(=O)c4sccc4Cl)cn3C)cn2C)cc1C(=O)NCCN1CCC(O)CC1	4 (≈ 6.11 µM)	4 (≈ 6.11 µM)	2 (≈ 3.05 µM)	–	–	–	–	–
COc1ccsc1-c1cc(C(=O)Nc2cc(C(=O)Nc3cc(C(=O)NCCN4CCOCC4)n(C)c3)n(C)c2)n(C)c1	> 32	32 (≈ 53.9 µM)	> 32	–	–	–	–	–
Cn1cc(NC(=O)c2cc(NC(=O)c3cc(-c4cccc(F)c4)cn3C)cn2C)cc1C(=O)NCCN1CCOCC1	32 (≈ 55.6 µM)	32 (≈ 55.6 µM)	16 (≈ 27.8 µM)	–	–	–	–	–
Cn1cc(NC(=O)c2cc(NC(=O)c3cc(-c4cccc(Cl)c4)cn3C)cn2C)cc1C(=O)NCCN1CCOCC1	8 (≈ 13.5 µM)	8 (≈ 13.5 µM)	8 (≈ 13.5 µM)	–	–	–	–	–
Cn1cc(NC(=O)c2cc(NC(=O)c3cc(NC(=O)c4sccc4Cl)cn3C)cn2C)cc1C(=O)NCCCN1CCOCC1	4 (≈ 6.11 µM)	8 (≈ 12.2 µM)	2 (≈ 3.05 µM)	> 32	8 (≈ 12.2 µM)	71	8 (≈ 12.2 µM)	8 (≈ 12.2 µM)
CN1CCN(CCNC(=O)c2cc(NC(=O)c3cc(NC(=O)c4cc(NC(=O)c5sccc5Cl)cn4C)cn3C)cn2C)CC1	32 (≈ 48.9 µM)	4 (≈ 6.11 µM)	2 (≈ 3.06 µM)	–	–	–	–	–
Cn1cc(NC(=O)c2cc(NC(=O)c3cc(NC(=O)c4cc5ccccc5cn4)cn3C)cn2C)cc1C(=O)NCCN1CCC(F)CC1	0.125 (≈ 0.188 µM)	0.25 (≈ 0.374 µM)	0.031 (≈ 0.0464 µM)	–	–	–	–	–
Cn1cc(NC(=O)c2cc(NC(=O)c3cc(-c4ccccc4F)cn3C)cn2C)cc1C(=O)NCCN1CCOCC1	0.5 (≈ 0.869 µM)	8 (≈ 13.9 µM)	1 (≈ 1.74 µM)	–	–	–	–	–
Cn1cc(NC(=O)c2cc(NC(=O)c3cc(-c4ccc5nonc5c4)cn3C)cn2C)cc1C(=O)NCCN1CCOCC1	8 (≈ 13.3 µM)	8 (≈ 13.3 µM)	8 (≈ 13.3 µM)	–	–	–	–	–
CCCCc1ccc(-c2cc(C(=O)Nc3cc(C(=O)Nc4cc(C(=O)NCCN5CCOCC5)n(C)c4)n(C)c3)n(C)c2)nc1	32 (≈ 52.1 µM)	8 (≈ 13 µM)	2 (≈ 3.25 µM)	–	–	–	–	–
CN1CCN(NC(=O)c2cc(NC(=O)c3cc(NC(=O)c4cc(NC(=O)c5cc6ccccc6cn5)cn4C)cn3C)cn2C)CC1	16 (≈ 25.1 µM)	16 (≈ 25.1 µM)	16 (≈ 25.1 µM)	–	–	–	–	–
Cn1cc(NC(=O)c2cc(NC(=O)c3cc(NC(=O)c4sccc4Cl)cn3C)cn2C)cc1C(=O)NCCN1CCC(F)(F)CC1	2 (≈ 2.96 µM)	2 (≈ 2.96 µM)	0.5 (≈ 0.741 µM)	–	–	50	–	–
Cn1cc(NC(=O)c2cc(NC(=O)c3cc(-c4ccc(Cl)s4)cn3C)cn2C)cc1C(=O)NCCN1CCOCC1	2 (≈ 3.34 µM)	4 (≈ 6.69 µM)	2 (≈ 3.34 µM)	–	–	–	–	–
Cn1cc(NC(=O)c2cc(NC(=O)c3cc(-c4sccc4O)cn3C)cn2C)cc1C(=O)NCCN1CCOCC1	> 32	> 32	> 32	–	–	–	–	–
Cc1nnsc1-c1cc(C(=O)Nc2cc(C(=O)Nc3cc(C(=O)NCCN4CCOCC4)n(C)c3)n(C)c2)n(C)c1	8 (≈ 13.8 µM)	16 (≈ 27.6 µM)	2 (≈ 3.45 µM)	–	–	–	–	–
Cn1cc(NC(=O)c2cc(NC(=O)c3cc(NC(=O)c4sccc4Cl)cn3C)cn2C)cc1C(=O)NCc1ccccn1	4 (≈ 6.46 µM)	> 32	1 (≈ 1.62 µM)	–	–	–	–	–
Cn1cc(NC(=O)c2cc(NC(=O)c3cc(-c4ccc5ccccc5c4)cn3C)cn2C)cc1C(=O)NCCN1CCOCC1	4 (≈ 6.58 µM)	8 (≈ 13.2 µM)	4 (≈ 6.58 µM)	–	–	–	–	–
Cn1cc(NC(=O)c2cc(NC(=O)c3cc(NC(=O)c4cc5ccccc5cn4)cn3C)cn2C)cc1C(=O)NCCCN1CCCCC1	4 (≈ 6.03 µM)	4 (≈ 6.03 µM)	0.25 (≈ 0.377 µM)	–	–	–	–	–
CN(C)CC(C)(C)CNC(=O)c1cc(NC(=O)c2cc(NC(=O)c3cc(NC(=O)c4cc5ccccc5cn4)cn3C)cn2C)cn1C	1 (≈ 1.53 µM)	1 (≈ 1.53 µM)	1 (≈ 1.53 µM)	–	–	–	–	–
Cn1cc(NC(=O)c2cc(NC(=O)c3cc(NC(=O)c4sccc4Cl)cn3C)cn2C)cc1C(=O)NCCc1ccccn1	2 (≈ 3.16 µM)	2 (≈ 3.16 µM)	2 (≈ 3.16 µM)	–	–	100	–	–
Cn1cc(NC(=O)c2cc(NC(=O)c3cc(NC(=O)c4cc5ccccc5cn4)cn3C)cn2C)cc1C(=O)NCCCN1CCOCC1	2 (≈ 3 µM)	2 (≈ 3 µM)	2 (≈ 3 µM)	–	–	–	–	–
Cn1cc(NC(=O)c2cc(NC(=O)c3cc(-c4ccc(F)cc4F)cn3C)cn2C)cc1C(=O)NCCN1CCOCC1	1 (≈ 1.68 µM)	2 (≈ 3.37 µM)	0.125 (≈ 0.211 µM)	–	–	–	–	–
Cn1cc(NC(=O)c2cc(NC(=O)c3cc(-c4ccc5[nH]cnc5c4)cn3C)cn2C)cc1C(=O)NCCN1CCOCC1	> 32	> 32	> 8	–	–	–	–	–

Compound	MIC (Enterococcus faecalis [1]) [µg/mL]	MIC (Staphylococcus aureus) [µg/mL]	MIC [2] [µg/mL]	MIC (Candida albicans) [µg/mL]	MIC (Enterococcus faecalis [3]) [µg/mL]	Kd (Nucleic Acid) [nM]	MIC [4] [µg/mL]	MIC (Bacillus cereus) [µg/mL]
Cn1cc(NC(=O)c2cc(NC(=O)c3cc(NC(=O)c4cc5ccccc5cn4)cn3C)cn2C)cc1C(=O)NCCN1CCNCC1	> 32	16 (≈ 24.6 µM)	> 32	–	–	–	–	–
Cc1ccsc1-c1cc(C(=O)Nc2cc(C(=O)Nc3cc(C(=O)NCCN4CCOCC4)n(C)c3)n(C)c2)n(C)c1	16 (≈ 27.7 µM)	16 (≈ 27.7 µM)	4 (≈ 6.92 µM)	–	–	–	–	–
Cn1cc(NC(=O)c2cc(NC(=O)c3cc(-c4cc5ccccc5[nH]4)cn3C)cn2C)cc1C(=O)NCCN1CCOCC1	8 (≈ 13.4 µM)	8 (≈ 13.4 µM)	2 (≈ 3.35 µM)	–	–	–	–	–
Cn1cc(NC(=O)c2cc(NC(=O)c3cc(NC(=O)c4ccccn4)cn3C)cn2C)cc1C(=O)NCCN1CCOCC1	> 32	–	> 32	–	–	–	–	–
Cn1cc(NC(=O)c2cc(NC(=O)c3cc(NC(=O)c4cc5ccccc5cn4)cn3C)cn2C)cc1C(=O)NCCN1CCCCC1	0.062 (≈ 0.0954 µM)	0.25 (≈ 0.385 µM)	0.031 (≈ 0.0477 µM)	–	–	–	–	–
CC(C)S(=O)(=O)c1csc(-c2cc(C(=O)Nc3cc(C(=O)Nc4cc(C(=O)NCCN5CCOCC5)n(C)c4)n(C)c3)n(C)c2)c1Cl	4 (≈ 5.68 µM)	4 (≈ 5.68 µM)	1 (≈ 1.42 µM)	–	–	–	–	–
Cn1cc(NC(=O)c2cc(NC(=O)c3cc(-c4ccc(F)cc4)cn3C)cn2C)cc1C(=O)NCCN1CCOCC1	8 (≈ 13.9 µM)	16 (≈ 27.8 µM)	2 (≈ 3.47 µM)	–	–	–	–	–
CSc1ccsc1-c1cc(C(=O)Nc2cc(C(=O)Nc3cc(C(=O)NCCN4CCOCC4)n(C)c3)n(C)c2)n(C)c1	8 (≈ 13.1 µM)	4 (≈ 6.56 µM)	0.125 (≈ 0.205 µM)	–	–	–	–	–
Cc1nc2ccncc2cc1C(=O)Nc1cc(C(=O)Nc2cc(C(=O)Nc3cc(C(=O)NCCN4CCOCC4)n(C)c3)n(C)c2)n(C)c1	> 32	–	> 32	–	–	–	–	–
Cn1cc(NC(=O)c2cc(NC(=O)c3cc(-c4cnc(O)c(Cl)c4)cn3C)cn2C)cc1C(=O)NCCN1CCOCC1	> 32	8 (≈ 13.1 µM)	0.5 (≈ 0.821 µM)	–	–	–	–	–
CN(C)CCCNC(=O)c1cc(NC(=O)c2cc(NC(=O)c3cc(NC(=O)c4cc5ccccc5cn4)cn3C)cn2C)cn1C	4 (≈ 6.41 µM)	4 (≈ 6.41 µM)	1 (≈ 1.6 µM)	–	–	–	–	–
Cn1cc(NC(=O)c2cc(NC(=O)c3cc(-c4cc(Cl)c(Cl)s4)cn3C)cn2C)cc1C(=O)NCCN1CCOCC1	8 (≈ 12.6 µM)	8 (≈ 12.6 µM)	4 (≈ 6.32 µM)	–	–	–	–	–
Cn1cc(NC(=O)c2cc(NC(=O)c3cc(-c4ccccc4Cl)cn3C)cn2C)cc1C(=O)NCCN1CCOCC1	16 (≈ 27 µM)	32 (≈ 54 µM)	32 (≈ 54 µM)	–	–	–	–	–
Cn1cc(NC(=O)c2cc(NC(=O)c3cc(-c4ccco4)cn3C)cn2C)cc1C(=O)NCCN1CCOCC1	32 (≈ 58.4 µM)	32 (≈ 58.4 µM)	1 (≈ 1.83 µM)	–	–	–	–	–
Cn1cc(NC(=O)c2cc(NC(=O)c3cc(NC(=O)c4cc5ccccc5n4C)cn3C)cn2C)cc1C(=O)NCCN1CCOCC1	32 (≈ 48.9 µM)	–	8 (≈ 12.2 µM)	–	–	–	–	–
Cn1cc(NC(=O)c2cc(NC(=O)c3cc(-c4sc(Cl)c(Cl)c4Cl)cn3C)cn2C)cc1C(=O)NCCN1CCOCC1	> 32	16 (≈ 24 µM)	8 (≈ 12 µM)	–	–	–	–	–
Cn1cc(NC(=O)c2cc(NC(=O)c3cc(-c4sccc4C#N)cn3C)cn2C)cc1C(=O)NCCN1CCOCC1	2 (≈ 3.4 µM)	4 (≈ 6.79 µM)	0.5 (≈ 0.849 µM)	–	–	–	–	–
Cn1cc(NC(=O)c2cc(NC(=O)c3cc(NC(=O)c4cc5ccccc5s4)cn3C)cn2C)cc1C(=O)NCCN1CCOCC1	32 (≈ 48.7 µM)	–	1 (≈ 1.52 µM)	–	–	–	–	–
Cn1cc(NC(=O)c2cc(NC(=O)c3cc(-c4csnn4)cn3C)cn2C)cc1C(=O)NCCN1CCOCC1	4 (≈ 7.07 µM)	32 (≈ 56.6 µM)	1 (≈ 1.77 µM)	–	–	–	–	–
Cn1cc(NC(=O)c2cc(NC(=O)c3cc(NC(=O)c4cnc5ccccc5n4)cn3C)cn2C)cc1C(=O)NCCN1CCOCC1	> 32	–	> 32	–	–	–	–	–
Cn1cc(NC(=O)c2cc(NC(=O)c3cc(-c4cc5ccccc5o4)cn3C)cn2C)cc1C(=O)NCCN1CCOCC1	4 (≈ 6.69 µM)	2 (≈ 3.35 µM)	0.5 (≈ 0.837 µM)	–	–	–	–	–
Cc1c(-c2cc(C(=O)Nc3cc(C(=O)Nc4cc(C(=O)NCCN5CCOCC5)n(C)c4)n(C)c3)n(C)c2)oc2ccccc12	16 (≈ 26.2 µM)	8 (≈ 13.1 µM)	2 (≈ 3.27 µM)	–	–	–	–	–
Cn1cc(NC(=O)c2cc(NC(=O)c3cc(NC(=O)c4sccc4Cl)cn3C)cn2C)cc1C(=O)NCCN1CCCC1	16 (≈ 25.6 µM)	8 (≈ 12.8 µM)	2 (≈ 3.2 µM)	–	–	2	–	–
Cn1cc(NC(=O)c2cc(NC(=O)c3cc(-c4ccc5nsnc5c4)cn3C)cn2C)cc1C(=O)NCCN1CCOCC1	1 (≈ 1.62 µM)	8 (≈ 13 µM)	0.5 (≈ 0.812 µM)	–	–	–	–	–
Cn1cc(NC(=O)c2cc(NC(=O)c3cc(NC(=O)c4sc5cc(C(F)(F)F)ccc5c4Cl)cn3C)cn2C)cc1C(=O)NCCN1CCOCC1	8 (≈ 10.5 µM)	–	4 (≈ 5.27 µM)	–	–	–	–	–
CN(C)CCCNC(=O)c1cc(NC(=O)c2cc(NC(=O)c3cc(NC(=O)c4sccc4Cl)cn3C)cn2C)cn1C	16 (≈ 26.1 µM)	8 (≈ 13 µM)	4 (≈ 6.52 µM)	–	–	5	–	–
